Test results taken from patent US9765297B2, “Stem cell-based culture system for drug development” (THE TRUSTEES OF COLUMBIA UNIVERSITY IN THE CITY OF NEW YORK, priority 2007, dated 2017).
Entries after “also recorded” stand apart in the source; their conditions may differ. Where a SMILES comes first, the peptide text is derived from it. The star is where a group is joined. Cbz = O=C(OCc1ccccc1)*; CH2F = FC*

Legend:
[1] = system: motor neurons on mutant SOD1 astrocyte layer; test: Motor neuron / mutant SOD1 astrocyte co-cultures incubated with CNQX or Fas-Fc (FIG. 11c,d); format: cell-based, mouse; conditions: 100 μM CNQX
Description: FIG. 11a-e. Glutamate, Fas ligand and several major cytokines and chemokines are not involved in the toxicity of mutant SOD1 astrocytes to motor neurons. […] (b) 14 d-old-confluent ^NTgAML or ^G93AAML were incubated with 200 μM of glutamate. Then, the extracellular concentration of glutamate was monitored by HPLC at 0, 0.5, 1, 3, 6 and 24 hr. No interaction was found between the timing of glutamate decrease in the medium and the genotypes of the two astrocyte layers (F[2.241]=0.430; P=0.826; ANOVA). […] (e) The relative contents of 19 cytokines/chemokines were screened by array in CMd from G93A and NTg astrocytes. The genotypic differences were highlighted in bold. […]
Results are expressed as mean±standard error of the mean (s.e.m.) for 3-6 independent experiments. […] Each coverslip was counted at ×100 under fluorescent examination in its entirety. To determine the proportion of dying or apoptotic neurons, ≧750 MAP2^+ neurons were counted per culture. Differences between means were analyzed by a two-tailed Student's t-test whereas among means by one- or two-way ANOVA with the different types of mice, treatment doses, or time as the independent factors. […] For morphometry studies, differences were analyzed by Kolmogorov-Smimov test (www.physics.csbsju.edu/stats/KS-test.n.plot_form.html). […]

ESMN plated on G93A AML = test: Co-culture of embryonic stem cell-derived motor neurons (ESMN) on mutant SOD1 G93A astrocyte monolayers with pharmacological treatment; survival and death counted at 7 d; format: cell-based, mouse; conditions: 7 d post-plating, V5 50-200 μM, zVAD-fmk 10-20 μM; for percentages of surviving ESMN: ESMN on G93A AML, vs vehicle; for percentages of ESMN / MAP2+ neurons labeled with EthD (dying cells) / percentages of embryonic stem cell-derived MAP2+/fractin+ neurons (apoptosis): G93A AML co-cultures, vs vehicle (DMSO), added daily
Description: Glial monolayers were prepared from spinal cord from transgenic SOD^G93A, SOD^G37R, SOD^G85R, SOD^WT of newborn pups as described by Silva and collaborators^31. Cell suspensions were plated in glial medium: Dubelco Modified Eagle's medium (DMEM; Invitrogen, Carlsbad, Calif.) containing 10% fetal bovine serum (FBS; Invitrogen), 100 U/mL penicillin and 100 μg/mL streptomycin (penicillin/streptomycin, Invitrogen). After 2 weeks, glial cultures contained 95% of glial acidic fibrillary protein (GFAP)^+ astrocytes, 5% of CD11b^+ microglia, and no neuron or oligodendrocyte as indicated by the lack of respectively MAP2 or 2′-3′-cyclic nucleotide phosphohydrolase immunoreactivity (data not shown). To eliminate residual microglia, 2-week-old flasks were agitated (200 rpm; 6 h) and astrocytes were detached by 0.25% trypsin (Invitrogen) and plated onto coverslips at a density of 20,000 cells/cm^2.
Cells were derived from Hlxb9-GFP1Tmj transgenic mice^13 and differentiated into ESMN as described previously^13. To form EBs, cells were grown for 2 d in 1:1 (v/v) DMEM/Ham's F-12 media (Invitrogen) medium containing B27 supplement (Invitrogen), penicillin/streptomycin and 0.1 mM β-mercaptoethanol (Sigma, Saint Louis, Mo.). They were treated with 1 μM retinoic acid (Sigma) and 400 nM sonic hedgehog agonist (Hh-Ag1.3, Curls Inc., Cambridge, Mass.) for 5 d and dissociated with papain (Worthington, Lakewood, N.J.). Cells were plated at 1,600 eGFP-positive cells/cm^2 in motor neuron medium: Neurobasal medium (Invitrogen) containing 2% horse serum (heat inactivated; Invitrogen), B27 supplement, 0.5 mM glutamine (Invitrogen), 25 μM β-mercaptoethanol, penicillin/streptomycin. To obtain LH2-positive neurons, once EBs were formed they were treated with 0.1 μM retinoic acid and 15 ng/mL bone morphogenetic protein 4 (R&D systems, Minneapolis, Minn.) for 5 d before papain dissociation. Then, 1,500 cells/cm^2 were plated onto astrocyte monolayer in motor neuron medium.
For EthD (Molecular Probes) estimation of death, cells were incubated with 2 μM EthD (diluted in D-PBS; 45 min; RT) as we previously reported^36. For immunocytochemistry and the other cell labelings, cells were processed as we previously described^36. Primary antibodies used were: rabbit polyclonal anti-eGFP (1:2000; Molecular Probes), anti-fractin (1:5000; BD Pharmingen, San Jose, Calif.), GABA (1:2000; Chemicon), anti-Lim2 (1:150; from Dr. Jessell's lab), and anti-HB9 (1:1000 from T M Jessell's lab); goat polyclonal anti-ChAT (1:100; Chemicon, Temecula, Calif.); sheep polyclonal anti-SOD1 (1:500; Calbiochem), rabbit anti-protein gene product 9.5 (PG-P 9.5; 1:2000; Chemicon) and mouse monoclonal anti-MAP-2 (1:1000; Chemicon), anti-GFAP (1:1000; Sigma), anti-Islet 1/2 (1:100; from TM Jessell's lab), anti-LH2 (1:2; from T M Jessell's lab), and anti-SMI-32 for non-phosphorylated neurofilament heavy chain (1:1000, Sternberger monoclonals, Lutherville, Md.). Terminal deoxy-UTP nick-end labeling (Tunel, in situ cell death detection kit, Roche Diagnostic, Indianapolis, Ind.) were performed following the manufacturer's recommendations.
zVAD-fmk and V5 (Sigma) were dissolved in DMSO and add to co-cultures to final concentrations ranging from 10-20 μM for the former and 50-200 μM for the latter. Fresh drugs were added daily. Cell survival and death were evaluated at 7 d by counting eGFP^+/HB9^+ neurons, and EthD- and fractin-labeled cells as described below.
Results are expressed as mean±standard error of the mean (s.e.m.) for 3-6 independent experiments. Each experiment corresponds ≧3 transgenic and non-transgenic co-cultures from the same litter and 3 coverslips per time point and per condition. Each coverslip was counted at ×100 under fluorescent examination in its entirety. To determine the proportion of dying or apoptotic neurons, ≧750 MAP2^+ neurons were counted per culture. […]

Compound	mutant SOD1 astrocyte-mediated motor neuron death [1]	percentages of surviving ESMN (ESMN plated on G93A AML)	percentages of surviving ESMN (ESMN plated on G93A AML; listed as zVAD.fmk)	percentages of ESMN / MAP2+ neurons labeled with EthD (dying cells) (ESMN plated on G93A AML)	percentages of embryonic stem cell-derived MAP2+/fractin+ neurons (apoptosis) (ESMN plated on G93A AML)
N#Cc1cc2[nH]c(=O)c(=O)[nH]c2cc1[N+](=O)[O-] [CNQX]	did not influence	–	–	–	–
COC(=O)C[C@H](NC(=O)[C@H](C)NC(=O)[C@@H](NC(=O)OCc1ccccc1)C(C)C)C(=O)CF [zVAD-fmk] (Cbz-Val-Ala-Asp(OMe)-CH2F)	–	failed to improve	had no effect	had no effect	decreased
VPMLK [V5]	–	augmented; also recorded: increases	–	diminished; also recorded: decreases	reduced specifically; also recorded: decreases; also recorded: inhibited apoptosis
